Assay [1] has as its target T1, human P2X4 (Homo sapiens, UniProt Q99571).
T1 construct: expressed in transfected cells
T1 sequence (Q99571 1-388): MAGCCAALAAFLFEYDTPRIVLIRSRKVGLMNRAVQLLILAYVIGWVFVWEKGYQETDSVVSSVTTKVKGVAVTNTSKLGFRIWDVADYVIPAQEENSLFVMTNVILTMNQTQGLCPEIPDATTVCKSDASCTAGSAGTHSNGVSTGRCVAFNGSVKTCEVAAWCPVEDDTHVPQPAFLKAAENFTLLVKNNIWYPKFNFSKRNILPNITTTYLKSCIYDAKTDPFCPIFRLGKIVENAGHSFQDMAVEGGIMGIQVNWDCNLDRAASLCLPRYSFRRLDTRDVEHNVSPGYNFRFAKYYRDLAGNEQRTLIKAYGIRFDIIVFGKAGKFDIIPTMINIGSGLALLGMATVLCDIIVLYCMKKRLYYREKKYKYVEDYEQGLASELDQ
Conditions: cited from earlier work.

For assay [2], the target named is T1, human P2X4. Briefly: Intracellular Ca2+ assay, antagonists against Ca2+ responses evoked by EC80 ATP (1.5 µM) in 1321N1 cells expressing human P2X4. It is filed as cell-based.
Assay [3] deals with T2, mouse P2X4 (Mus musculus, UniProt Q9JJX6).
T2 construct: expressed in transfected cells
T2 sequence (Q9JJX6 1-388): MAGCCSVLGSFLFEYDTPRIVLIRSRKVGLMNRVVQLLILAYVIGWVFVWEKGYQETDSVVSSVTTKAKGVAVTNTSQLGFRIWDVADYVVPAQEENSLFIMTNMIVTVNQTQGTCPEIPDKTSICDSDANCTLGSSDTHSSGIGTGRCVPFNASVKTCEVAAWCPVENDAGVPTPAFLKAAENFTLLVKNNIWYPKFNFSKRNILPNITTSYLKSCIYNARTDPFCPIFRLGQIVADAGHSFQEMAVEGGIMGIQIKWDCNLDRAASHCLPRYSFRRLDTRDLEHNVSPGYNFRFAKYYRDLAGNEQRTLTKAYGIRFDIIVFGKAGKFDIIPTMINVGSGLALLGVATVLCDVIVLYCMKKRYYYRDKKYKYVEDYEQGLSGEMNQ
Briefly: Intracellular Ca2+ assay, antagonists against Ca2+ responses evoked by EC80 ATP (1.5 µM) in 1321N1 cells expressing mouse P2X4. It is filed as cell-based.

The test system of a further assay is rat P2X4. Conditions: cited from earlier work.
The target of assay [4] is T2, mouse P2X4. Briefly: Intracellular Ca2+ assay (Fura-2, FlexStation 3), agonist responses in 1321N1 cells stably expressing mouse P2X4. It is filed as cell-based. Conditions: for Emax: 1321-N1, read-out: Efficacy Mouse (maximal response to ligand as a percentage of maximal response to ATP); for EC50: 1321N1 cells expressing mouse P2X4, peak Ca2+ response.
The target in assay [5] is T1, human P2X4. Briefly: Intracellular Ca2+ assay (Fura-2, FlexStation 3), agonist responses in 1321N1 cells stably expressing human P2X4. It is filed as cell-based. The settings on record: for Emax: 1321-N1, read-out: Efficacy Human (maximal response to ligand as a percentage of maximal response to ATP).
In assay [6] the target is T2, mouse P2X4. Conditions: cited from earlier work.
The mark [7] stands for this setting: 100 µM antagonist, vs 1.5 µM ATP.
[8] abbreviates: 30 µM antagonist, vs 1.5 µM ATP.
Setting [9] is: 10 µM antagonist, vs 1.5 µM ATP.
Where [10] appears, read: 1321N1 cells expressing human P2X4, peak Ca2+ response, read-out: EC50 Human.
The mark [11] stands for this setting: 20 µM antagonist, vs 1.5 µM ATP.

This is an account of results in PMC11554605, “Pharmacological differences between human and mouse P2X4 receptor explored using old and new tools” (Purinergic Signalling, 2024).

One may read the IC50 as the concentration that inhibits the measured activity by half. The EC50 is the concentration giving half of the maximal effect. The EC80 is the concentration needed for an effect of 80%. Low readings indicate greater potency, high ones weaker potency.

“Also recorded” adds a separate entry of the source. Where two headings read alike, the source gives them in different places.

As to `Cc1nc(/N=N/c2ccc(S(=O)(=O)O)cc2S(=O)(=O)O)c(COP(=O)(O)O)c(C=O)c1O` [PPADS, Pyridoxalphosphate-6-azophenyl-2′,4′-disulfonic acid], on human P2X4 [1] (ref 16-18), the “Antagonist action at human P2X4 (literature)” value is given as “inhibit the human P2X4 receptor fully”. Besides, the “% inhibition Human” value on human P2X4 [2] (setting [7]) is 98 ± 3% (100 µM). Besides, at mouse P2X4 [3] (setting [7]), the “% inhibition Mouse” value is 87 ± 16%(100 µM).
Take `O=C1CN=C(c2cccc(Br)c2)c2oc3ccccc3c2N1` [5-BDBD, 5-(3-Bromophenyl)-1,3-dihydro-2H-benzofuro[3,2-e]-1,4-diazepin-2-one]: the “% inhibition Human” value at human P2X4 [2] (setting [8]) is given as 97 ± 3% (30 µM). For the same compound, at human P2X4 [2] (vs 1.5 µM ATP), the “Antagonist action at human P2X4 (in words)” value is recorded as “completely inhibit”. In addition, at mouse P2X4 [3] (setting [8]), the “% inhibition Mouse” value is 10 ± 8% (30 µM). Also, the “Antagonist action at mouse P2X4 (in words)” value is recorded as “insensitive” at mouse P2X4 [3] (up to 100 µM) and “not antagonised; also recorded: not an antagonist” on mouse P2X4 [3] (vs 1.5 µM ATP). In addition, in the assay with rat P2X4 (ref 37), the “Antagonist action at rat P2X4 (literature)” value is recorded as “sensitivity”.
On to `Nc1ncnc2c1ncn2[C@@H]1O[C@H](COP(=O)(O)OP(=O)(O)OP(=O)(O)O)[C@H]2OC3(O[C@H]21)C([N+](=O)[O-])=CC(=[N+]([O-])[O-])C=C3[N+](=O)[O-]` (stereo partly drawn) [TNP-ATP, 2′,3′-O-(2,4,6-Trinitrophenyl)-ATP], for which the “Antagonist action at human P2X4 (in words)” value at human P2X4 [2] is given as “completely inhibited”. Further, the “% inhibition Human” value at human P2X4 [2] (setting [7]) is reported as 94 ± 1% (100 µM). At mouse P2X4 [3], this compound registered a half-maximal inhibitory concentration (IC50) of 93 ± 4 µM. The “% inhibition Mouse” value at mouse P2X4 [3] (setting [7]) is 43 ± 7% (100 µM).
Take `Nc1ncnc2c1ncn2C1OC(COP(=O)(O)CP(=O)(O)OP(=O)(O)O)C(O)C1O` (stereo not drawn) [α,β-meATP, α,β-Methyleneadenosine 5′-triphosphate]: the Emax at mouse P2X4 [4] was 5 ± 2%. In addition, the “Agonist action at mouse P2X4 (in words)” value on mouse P2X4 [4] (mouse P2X4) is “no significant effect”. At human P2X4 [5], the EC50 came out at 7 ± 0.7 µM and the Emax worked out at 15 ± 2%. Further, the “Agonist action at human P2X4 (in words)” value at human P2X4 [5] (human P2X4) is “can be activated; also recorded: weak partial agonist”.
`NS(=O)(=O)c1cc(NC(=O)Cc2ccccc2)ccc1Oc1cccc(Cl)c1` [BAY-1797, N-[4-(3-Chlorophenoxy)-3-sulfamoylphenyl]-2-phenylacetamide]: the “% inhibition Mouse” value on mouse P2X4 [3] (setting [9]) is on record as 99 ± 2% (10 µM).
As for `Nc1ncnc2c1ncn2[C@@H]1O[C@H](COP(=O)(O)OP(=O)(O)OP(=O)(O)OP(=O)(O)OC[C@H]2O[C@@H](n3cnc4c(N)ncnc43)[C@H](O)[C@@H]2O)[C@@H](O)[C@H]1O` [Ap4A, Diadenosine tetraphosphate], the “Agonist action at mouse P2X4 (in words)” value on mouse P2X4 [4] (mouse P2X4) is on record as “not an agonist”; on mouse P2X4 [4] (tested up to 1 mM) it was “did not activate”. The “Agonist action at mouse P2X4 (literature)” value is “activates mouse P2X4 at low micromolar concentrations” at mouse P2X4 [6] (ref 17) and “insensitive” at mouse P2X4 [6] (ref 35). Also, the “Agonist action at human P2X4 (literature)” value on human P2X4 [1] (ref 35, ref 17) is listed as “activation of human P2X4 by Ap4A at nanomolar concentrations”. Besides, the “Agonist action at human P2X4 (in words)” value on human P2X4 [5] (tested up to 1 mM) is “did not activate”. For the same compound, the “Agonist potency at rat P2X4 (literature)” value in the assay on rat P2X4 (ref 36) is “equipotent with ATP”.
As for `CC(C)c1cc(Br)c(NC(=O)Nc2cccnc2)c(Br)c1` [BX-430, 1-(2,6-Dibromo-4-isopropyl-phenyl)-3-(3-pyridyl)urea], the “% inhibition Human” value on human P2X4 [2] (setting [9]) is given as 96 ± 3% (10 µM). Moreover, the “Antagonist action at human P2X4 (in words)” value on human P2X4 [2] (vs 1.5 µM ATP) is listed as “abolished receptor activity”. For the same compound, the “% inhibition Mouse” value at mouse P2X4 [3] (setting [9]) was 0 ± 3% (10 µM). The “Antagonist action at mouse P2X4 (in words)” value is recorded as “insensitive” at mouse P2X4 [3] (up to 100 µM) and “not antagonised” at mouse P2X4 [3] (vs 1.5 µM ATP).
Take `Nc1ncnc2c1ncn2C1OC(COP(=O)(O)OP(=O)(O)OP(=O)(O)O)C(OC(=O)c2ccc(C(=O)c3ccccc3)cc2)C1O` (stereo not drawn) [BzATP, 2′(3′)-O-(4-Benzoylbenzoyl)adenosine 5′-triphosphate]: the Emax at mouse P2X4 [4] amounted to 27 ± 2%; on human P2X4 [5], 35 ± 4%. Moreover, the EC50 on mouse P2X4 [4] was 24 ± 16 µM; at human P2X4 [5] (setting [10]), 11 ± 2 µM. For the same compound, the “Agonist action at mouse P2X4 (in words)” value on mouse P2X4 [4] (mouse P2X4) is recorded as “partial agonist”. The “Agonist action at human P2X4 (in words)” value at human P2X4 [5] (human P2X4) is listed as “partial agonist”.
`CSc1nc(N)c2ncn([C@@H]3O[C@H](COP(=O)(O)OP(=O)(O)OP(=O)(O)O)[C@@H](O)[C@H]3O)c2n1` [2-MeSATP, 2-(Methylthio)adenosine 5′-triphosphate]: the Emax on mouse P2X4 [4] came out at 65 ± 2%; at human P2X4 [5], 57 ± 6%. The EC50 came out at 8 ± 2 µM at mouse P2X4 [4] and 2 ± 0.2 µM at human P2X4 [5] (setting [10]). Further, on mouse P2X4 [4] (mouse P2X4), the “Agonist action at mouse P2X4 (in words)” value is given as “partial agonist”. In addition, at human P2X4 [5] (human P2X4), the “Agonist action at human P2X4 (in words)” value was “partial agonist”.
For `Nc1ccn([C@@H]2O[C@H](COP(=O)(O)OP(=O)(O)OP(=O)(O)O)[C@@H](O)[C@H]2O)c(=O)n1` [CTP, Cytidine 5′-triphosphate], the Emax on mouse P2X4 [4] is 89 ± 5%; on human P2X4 [5] it was 67 ± 6%. Besides, the “Agonist action at mouse P2X4 (in words)” value on mouse P2X4 [4] (mouse P2X4) was “full agonist”. In addition, the “Agonist action at human P2X4 (in words)” value at human P2X4 [5] (human P2X4) is given as “partial agonist”.
As to `Nc1ncnc2c1ncn2[C@@H]1O[C@H](COP(=O)(O)OP(=O)(O)OP(=O)(O)O)[C@@H](O)[C@H]1O` [ATP, adenosine 5′-triphosphate], the results for the EC50 on mouse P2X4 [4] and on human P2X4 [5] (setting [10]) were 0.565 ± 0.085 µM and 0.747 ± 0.18 µM, respectively. The same compound displayed an 80% effect concentration (EC80) on human P2X4 [5] (human P2X4) of 1.5 ± 0.3 µM.
As for `Cc1ccc(C(=O)Nc2ccc(S(=O)(=O)O)c3cc(S(=O)(=O)O)cc(S(=O)(=O)O)c23)cc1NC(=O)c1cccc(NC(=O)Nc2cccc(C(=O)Nc3cc(C(=O)Nc4ccc(S(=O)(=O)O)c5cc(S(=O)(=O)O)cc(S(=O)(=O)O)c45)ccc3C)c2)c1` [suramin, 8,8′-{Carbonylbis[imino-3,1-phenylenecarbonylimino(4-methyl-3,1-phenylene)carbonylimino]}di(1,3,5-naphthalenetrisulfonic acid)], the “Antagonist action at human P2X4 (in words)” value on human P2X4 [2] (up to 100 µM) is on record as “completely insensitive”. Also, at mouse P2X4 [3] (up to 100 µM), the “Antagonist action at mouse P2X4 (in words)” value was “completely insensitive”.
With `C#CCNP(=O)(O)OP(=O)(O)OP(=O)(O)OCC1OC(n2cnc3c(N)ncnc32)C(O)C1O` (stereo not drawn) [γ-[(Propargyl)-imido]-ATP, Adenosine-5′-[γ-(propargyl)-imido]triphosphate], the results for the Emax at mouse P2X4 [4] and at human P2X4 [5] were 90 ± 11% and 85 ± 5%, respectively. Besides, the EC50 on mouse P2X4 [4] and at human P2X4 [5] (setting [10]) was 20 ± 2 µM throughout. Moreover, the “Agonist action at mouse P2X4 (in words)” value on mouse P2X4 [4] (mouse P2X4) is reported as “full agonist”. Moreover, at human P2X4 [5] (human P2X4), the “Agonist action at human P2X4 (in words)” value is “partial agonism”.
As for `Cc1ccc(S(=O)(=O)N2c3ccccc3Oc3ccccc32)cc1` [PSB-12062, N-(p-methylphenylsulfonyl)phenoxazine], the “% inhibition Human” value on human P2X4 [2] (setting [11]) is 99 ± 4% (20 µM). Besides, at human P2X4 [2] (vs 1.5 µM ATP), the “Antagonist action at human P2X4 (in words)” value is on record as “abolished activity”. Further, at mouse P2X4 [3] (setting [11]), the “% inhibition Mouse” value is 59 ± 7% (20 µM). Further, the IC50 at mouse P2X4 [3] (read-out: IC50 Mouse) came out at 3 ± 2 µM.
Turning to `Nc1ncnc2c1ncn2[C@@H]1O[C@H](CO[P@](=O)(O)O[P@](=O)(O)O[P@@](=O)(O)S)[C@@H](O)[C@H]1O` [ATPγS, Adenosine-5′-O-(3-thio-triphosphate)], the Emax at mouse P2X4 [4] worked out at 45 ± 4%; at human P2X4 [5], 9 ± 3%. Besides, it took 18 ± 1 µM to reach a half-maximal effect at mouse P2X4 [4] (EC50). For the same compound, on mouse P2X4 [4] (mouse P2X4), the “Agonist action at mouse P2X4 (in words)” value is listed as “partial agonist”. For the same compound, on human P2X4 [1] (ref 33), the “Agonist action at human P2X4 (literature)” value was “partial agonism”. Also, the “Agonist action at human P2X4 (in words)” value is “did not activate; also recorded: not activated” at human P2X4 [5] (human P2X4) and “does not activate” on human P2X4 [5] (up to 300 µM).
